What was measured:
Assay in all cases: SelectScreen kinase profiling, SSBK ZLyte SP Technology
Assay type in all cases: biochemical
[1] = molecular target: kinase named in conditions (Homo sapiens, UniProt P53778); conditions: MAPK12 (p38 gamma), 10 μM
Protocol: (§1) Kinase selectivity screening was performed by Thermo Fisher Scientific (Paisley, U.K.) in their SelectScreen Biochemical Kinase Profiling Service. Assay information and data are presented in the Supporting Information.
(§2) Kinase selectivity screening was performed by ThermoFisher Scientific (Paisley, U.K.) in their SelectScreenTM
(§3) Biochemical Kinase Profiling service .

[2] = molecular target: kinase named in conditions (Homo sapiens, UniProt P15735); conditions: PHKG2, 10 μM
Protocol: as §1, §2, §3

[3] = molecular target: kinase named in conditions (Homo sapiens, UniProt Q9H2X6); conditions: HIPK2, 10 μM
Protocol: as §1, §2, §3

[4] = molecular target: kinase named in conditions (Homo sapiens, UniProt Q16539); conditions: 10 μM
Protocol: as §1, §2, §3

[5] = molecular target: kinase named in conditions (Homo sapiens, UniProt O00418); conditions: EEF2K, 10 μM
Protocol: as §1, §2, §3

[6] = molecular target: kinase named in conditions (Homo sapiens, UniProt O60674)
Protocol: as §1, §2, §3

[7] = molecular target: kinase named in conditions (Homo sapiens, UniProt Q9BXA7); conditions: STK22D (TSSK1), 10 μM
Protocol: as §1, §2, §3

[8] = molecular target: kinase named in conditions (Homo sapiens, UniProt P54760); conditions: EPHB4, 10 μM
Protocol: as §1, §2, §3

[9] = molecular target: kinase named in conditions (Homo sapiens, UniProt P22607, K650E); conditions: FGFR3 K650E, 10 μM
Protocol: as §1, §2, §3

[10] = molecular target: kinase named in conditions (Homo sapiens, UniProt P00519, G250E); conditions: ABL1 G250E, 10 μM
Protocol: as §1, §2, §3

[11] = molecular target: kinase named in conditions (Homo sapiens, UniProt P36507); conditions: MAP2K2 (MEK2), 10 μM
Protocol: as §1, §2, §3

[12] = molecular target: kinase named in conditions (Homo sapiens, UniProt Q02763, Y897S); conditions: TEK (TIE2) Y897S, 10 μM
Protocol: as §1, §2, §3

[13] = molecular target: kinase named in conditions (Homo sapiens, UniProt Q8TDC3); conditions: BRSK1 (SAD1), 10 μM
Protocol: as §1, §2, §3

[14] = molecular target: kinase named in conditions (Homo sapiens, UniProt P17252); conditions: PRKCA (PKC alpha), 10 μM
Protocol: as §1, §2, §3

[15] = molecular target: kinase named in conditions (Homo sapiens, UniProt O15530)
Protocol: as §1, §2, §3

[16] = molecular target: kinase named in conditions (Homo sapiens, UniProt Q96GD4); conditions: AURKB (Aurora B), 10 μM
Protocol: as §1, §2, §3

[17] = molecular target: kinase named in conditions (Homo sapiens, UniProt P00533, T790M); conditions: EGFR (ErbB1) T790M, 10 μM
Protocol: as §1, §2, §3

[18] = molecular target: kinase named in conditions (Homo sapiens, UniProt Q12851); conditions: MAP4K2 (GCK), 10 μM
Protocol: as §1, §2, §3

[19] = molecular target: kinase named in conditions (Homo sapiens, UniProt P15056, V600E); conditions: BRAF V599E, 10 μM
Protocol: as §1, §2, §3

[20] = molecular target: kinase named in conditions (Homo sapiens, UniProt P22607, V555M); conditions: FGFR3 V555M, 10 μM
Protocol: as §1, §2, §3

[21] = molecular target: kinase named in conditions (Homo sapiens, UniProt P45983); conditions: MAPK8 (JNK1), 10 μM
Protocol: as §1, §2, §3

[22] = molecular target: kinase named in conditions (Homo sapiens, UniProt O96017); conditions: CHEK2 (CHK2), 10 μM
Protocol: as §1, §2, §3

[23] = molecular target: kinase named in conditions (Homo sapiens, UniProt Q13043); conditions: STK4 (MST1), 10 μM
Protocol: as §1, §2, §3

[24] = molecular target: kinase named in conditions (Homo sapiens, UniProt P29597); conditions: TYK2, 10 μM
Protocol: as §1, §2, §3

[25] = molecular target: kinase named in conditions (Homo sapiens, UniProt O94806); conditions: PRKCN (PKD3), 10 μM
Protocol: as §1, §2, §3

[26] = molecular target: kinase named in conditions (Homo sapiens, UniProt Q00535)
Protocol: as §1, §2, §3

[27] = molecular target: kinase named in conditions (Homo sapiens, UniProt P25098); conditions: ADRBK1 (GRK2), 10 μM
Protocol: as §1, §2, §3

[28] = molecular target: kinase named in conditions (Homo sapiens, UniProt P12931); conditions: SRC, 10 μM
Protocol: as §1, §2, §3

[29] = molecular target: kinase named in conditions (Homo sapiens, UniProt Q13470); conditions: TNK1, 10 μM
Protocol: as §1, §2, §3

[30] = molecular target: kinase named in conditions (Homo sapiens, UniProt Q04759); conditions: PRKCQ (PKC theta), 10 μM
Protocol: as §1, §2, §3

[31] = molecular target: kinase named in conditions (Homo sapiens, UniProt P07949, S891A); conditions: RET S891A, 10 μM
Protocol: as §1, §2, §3

[32] = molecular target: kinase named in conditions (Homo sapiens, UniProt Q8N568); conditions: DCAMKL2 (DCK2), 10 μM
Protocol: as §1, §2, §3

[33] = molecular target: kinase named in conditions (Homo sapiens, UniProt Q96L34); conditions: MARK4, 10 μM
Protocol: as §1, §2, §3

kinase named in conditions (Homo sapiens, UniProt O15530), sequence (O15530 whole entry): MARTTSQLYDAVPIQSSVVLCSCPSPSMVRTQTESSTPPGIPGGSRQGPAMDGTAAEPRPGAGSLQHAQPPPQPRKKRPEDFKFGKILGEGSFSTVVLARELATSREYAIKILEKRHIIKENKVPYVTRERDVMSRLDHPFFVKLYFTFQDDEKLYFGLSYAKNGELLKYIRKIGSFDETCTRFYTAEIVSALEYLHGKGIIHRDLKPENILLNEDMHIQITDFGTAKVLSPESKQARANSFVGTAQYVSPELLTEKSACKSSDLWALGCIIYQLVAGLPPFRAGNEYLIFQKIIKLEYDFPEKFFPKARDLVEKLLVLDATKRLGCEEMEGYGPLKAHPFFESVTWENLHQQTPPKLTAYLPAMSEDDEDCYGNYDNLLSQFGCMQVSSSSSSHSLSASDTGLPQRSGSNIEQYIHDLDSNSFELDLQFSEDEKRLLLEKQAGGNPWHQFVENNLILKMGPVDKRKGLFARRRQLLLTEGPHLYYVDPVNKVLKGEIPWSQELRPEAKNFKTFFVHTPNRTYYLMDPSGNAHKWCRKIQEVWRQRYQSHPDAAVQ
kinase named in conditions (Homo sapiens, UniProt O60674), sequence (O60674 whole entry): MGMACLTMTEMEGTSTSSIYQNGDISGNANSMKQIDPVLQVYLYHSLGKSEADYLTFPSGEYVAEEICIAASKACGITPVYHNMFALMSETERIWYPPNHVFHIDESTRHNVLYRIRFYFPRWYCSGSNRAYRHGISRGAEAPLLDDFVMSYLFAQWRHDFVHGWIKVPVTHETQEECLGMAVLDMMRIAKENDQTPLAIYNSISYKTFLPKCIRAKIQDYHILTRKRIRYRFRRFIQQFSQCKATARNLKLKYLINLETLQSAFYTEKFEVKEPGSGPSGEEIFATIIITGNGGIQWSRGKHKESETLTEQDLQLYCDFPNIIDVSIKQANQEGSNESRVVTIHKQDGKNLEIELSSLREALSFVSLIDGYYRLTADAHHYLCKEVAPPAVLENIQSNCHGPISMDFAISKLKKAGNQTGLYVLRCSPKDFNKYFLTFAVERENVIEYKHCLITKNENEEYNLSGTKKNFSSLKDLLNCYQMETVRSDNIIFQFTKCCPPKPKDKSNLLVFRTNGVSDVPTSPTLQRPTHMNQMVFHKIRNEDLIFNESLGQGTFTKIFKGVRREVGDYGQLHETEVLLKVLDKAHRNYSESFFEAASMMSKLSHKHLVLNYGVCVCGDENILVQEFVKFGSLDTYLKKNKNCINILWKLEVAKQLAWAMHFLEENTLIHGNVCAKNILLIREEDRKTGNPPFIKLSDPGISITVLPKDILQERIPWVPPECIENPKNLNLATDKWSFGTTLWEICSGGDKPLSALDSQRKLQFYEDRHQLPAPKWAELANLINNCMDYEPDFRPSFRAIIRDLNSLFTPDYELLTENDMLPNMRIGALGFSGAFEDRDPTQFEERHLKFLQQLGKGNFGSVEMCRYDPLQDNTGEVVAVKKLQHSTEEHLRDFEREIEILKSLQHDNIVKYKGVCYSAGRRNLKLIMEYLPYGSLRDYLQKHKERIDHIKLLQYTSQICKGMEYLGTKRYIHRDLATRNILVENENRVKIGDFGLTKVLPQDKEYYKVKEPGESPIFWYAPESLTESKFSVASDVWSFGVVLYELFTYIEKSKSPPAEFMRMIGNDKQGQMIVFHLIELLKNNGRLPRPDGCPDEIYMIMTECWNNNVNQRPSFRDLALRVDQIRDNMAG
kinase named in conditions (Homo sapiens, UniProt Q00535), sequence (Q00535 whole entry): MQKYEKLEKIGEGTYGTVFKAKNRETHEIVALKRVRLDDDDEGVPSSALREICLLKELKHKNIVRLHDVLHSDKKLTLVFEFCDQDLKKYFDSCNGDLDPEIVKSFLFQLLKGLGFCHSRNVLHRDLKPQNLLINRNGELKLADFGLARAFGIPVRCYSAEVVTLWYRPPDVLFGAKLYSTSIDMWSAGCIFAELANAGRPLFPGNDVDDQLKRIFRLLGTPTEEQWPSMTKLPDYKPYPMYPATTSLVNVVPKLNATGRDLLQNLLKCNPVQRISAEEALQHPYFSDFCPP
kinase named in conditions (Homo sapiens, UniProt Q16539), sequence (Q16539 whole entry): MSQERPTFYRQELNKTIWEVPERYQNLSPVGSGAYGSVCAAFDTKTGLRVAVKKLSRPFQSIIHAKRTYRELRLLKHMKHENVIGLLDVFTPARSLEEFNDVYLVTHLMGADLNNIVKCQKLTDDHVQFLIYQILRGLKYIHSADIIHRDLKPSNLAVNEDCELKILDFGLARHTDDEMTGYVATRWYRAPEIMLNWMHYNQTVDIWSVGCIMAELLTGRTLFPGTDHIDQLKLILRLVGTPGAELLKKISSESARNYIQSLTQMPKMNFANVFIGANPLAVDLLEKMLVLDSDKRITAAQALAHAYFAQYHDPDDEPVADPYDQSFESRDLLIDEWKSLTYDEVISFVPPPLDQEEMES
kinase named in conditions (Homo sapiens, UniProt Q12851), sequence (Q12851 whole entry): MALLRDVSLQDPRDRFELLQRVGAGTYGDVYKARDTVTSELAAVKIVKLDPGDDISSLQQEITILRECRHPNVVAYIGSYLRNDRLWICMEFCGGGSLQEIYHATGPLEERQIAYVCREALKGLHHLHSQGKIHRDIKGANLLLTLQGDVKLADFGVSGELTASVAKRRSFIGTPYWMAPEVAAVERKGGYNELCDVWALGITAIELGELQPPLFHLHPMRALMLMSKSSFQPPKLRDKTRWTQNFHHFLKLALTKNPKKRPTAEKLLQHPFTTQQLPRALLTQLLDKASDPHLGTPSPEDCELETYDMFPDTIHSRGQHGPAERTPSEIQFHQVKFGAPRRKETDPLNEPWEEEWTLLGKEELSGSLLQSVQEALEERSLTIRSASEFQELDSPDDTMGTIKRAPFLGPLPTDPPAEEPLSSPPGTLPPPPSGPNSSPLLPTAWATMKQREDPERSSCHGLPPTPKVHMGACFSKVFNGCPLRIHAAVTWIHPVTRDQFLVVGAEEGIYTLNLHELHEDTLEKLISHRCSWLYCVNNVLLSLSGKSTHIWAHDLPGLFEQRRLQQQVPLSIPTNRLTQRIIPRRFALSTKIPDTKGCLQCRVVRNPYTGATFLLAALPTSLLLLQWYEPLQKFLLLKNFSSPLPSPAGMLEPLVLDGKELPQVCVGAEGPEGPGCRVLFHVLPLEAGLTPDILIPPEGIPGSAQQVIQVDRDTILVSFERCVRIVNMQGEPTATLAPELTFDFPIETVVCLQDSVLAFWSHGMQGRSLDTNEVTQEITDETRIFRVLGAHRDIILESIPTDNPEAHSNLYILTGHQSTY
kinase named in conditions (Homo sapiens, UniProt Q8N568), sequence (Q8N568 whole entry): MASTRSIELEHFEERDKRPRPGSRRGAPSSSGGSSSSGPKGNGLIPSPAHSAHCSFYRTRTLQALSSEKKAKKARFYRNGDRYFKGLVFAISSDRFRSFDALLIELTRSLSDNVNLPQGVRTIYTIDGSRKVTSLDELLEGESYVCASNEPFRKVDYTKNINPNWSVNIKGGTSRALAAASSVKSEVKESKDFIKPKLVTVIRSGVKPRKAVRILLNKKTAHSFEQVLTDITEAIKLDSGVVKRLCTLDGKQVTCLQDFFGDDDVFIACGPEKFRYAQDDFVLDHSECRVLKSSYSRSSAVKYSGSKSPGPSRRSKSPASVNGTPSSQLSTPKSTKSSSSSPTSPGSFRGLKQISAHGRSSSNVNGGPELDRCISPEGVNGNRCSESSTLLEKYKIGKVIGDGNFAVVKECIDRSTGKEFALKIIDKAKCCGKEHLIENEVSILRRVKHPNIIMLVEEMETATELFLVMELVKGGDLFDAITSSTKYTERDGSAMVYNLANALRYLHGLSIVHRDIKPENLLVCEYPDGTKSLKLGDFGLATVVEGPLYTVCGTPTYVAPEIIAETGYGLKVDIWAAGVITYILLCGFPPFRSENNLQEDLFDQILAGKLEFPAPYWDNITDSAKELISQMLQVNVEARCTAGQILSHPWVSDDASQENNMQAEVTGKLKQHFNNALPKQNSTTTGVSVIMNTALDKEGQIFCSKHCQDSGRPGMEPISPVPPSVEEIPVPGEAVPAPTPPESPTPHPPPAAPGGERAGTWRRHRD
kinase named in conditions (Homo sapiens, UniProt Q9BXA7), sequence (Q9BXA7 whole entry): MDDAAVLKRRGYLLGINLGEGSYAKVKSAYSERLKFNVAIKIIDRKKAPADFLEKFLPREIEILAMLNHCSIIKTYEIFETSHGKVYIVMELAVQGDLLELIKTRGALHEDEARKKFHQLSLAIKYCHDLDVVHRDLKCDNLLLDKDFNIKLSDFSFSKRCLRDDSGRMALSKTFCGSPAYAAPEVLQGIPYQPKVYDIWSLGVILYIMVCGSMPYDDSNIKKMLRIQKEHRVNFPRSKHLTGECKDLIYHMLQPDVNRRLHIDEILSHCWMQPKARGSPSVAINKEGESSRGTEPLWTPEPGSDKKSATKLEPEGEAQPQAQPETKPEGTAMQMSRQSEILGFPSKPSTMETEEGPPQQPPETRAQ
kinase named in conditions (Homo sapiens, UniProt P25098), sequence (P25098 whole entry): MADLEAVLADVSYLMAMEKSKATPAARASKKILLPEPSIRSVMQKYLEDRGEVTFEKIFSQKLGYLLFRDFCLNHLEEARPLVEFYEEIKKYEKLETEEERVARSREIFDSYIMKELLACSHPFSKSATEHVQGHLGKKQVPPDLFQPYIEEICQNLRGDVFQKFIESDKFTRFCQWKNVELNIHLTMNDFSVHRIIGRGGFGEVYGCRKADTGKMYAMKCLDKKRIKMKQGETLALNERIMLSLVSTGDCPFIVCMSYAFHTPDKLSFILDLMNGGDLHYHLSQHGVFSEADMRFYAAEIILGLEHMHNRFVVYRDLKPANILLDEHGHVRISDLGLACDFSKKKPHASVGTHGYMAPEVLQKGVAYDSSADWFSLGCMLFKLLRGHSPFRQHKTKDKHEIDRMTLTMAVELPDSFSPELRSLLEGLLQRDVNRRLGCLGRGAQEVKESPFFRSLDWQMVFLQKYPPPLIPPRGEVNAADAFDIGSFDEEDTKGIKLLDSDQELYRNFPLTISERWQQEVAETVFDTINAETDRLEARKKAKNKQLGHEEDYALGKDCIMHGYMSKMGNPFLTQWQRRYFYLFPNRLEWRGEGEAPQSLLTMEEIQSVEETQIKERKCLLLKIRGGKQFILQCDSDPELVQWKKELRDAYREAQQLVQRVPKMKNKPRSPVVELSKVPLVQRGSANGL

FC(F)(F)c1c(Cl)ccc(-n2ccnn2)c1Cl [8l, 1-(2,4-Dichloro-3-(trifluoromethyl)phenyl)-1H-1,2,3-triazole]
inhibition at 10 µM [1]: 2% | inhibition at 10 µM [2]: 8% | inhibition at 10 µM [3]: 2% | inhibition at 10 µM ([4]; MAPK14 (p38 alpha) Direct): -3% | inhibition at 10 µM ([4]; MAPK14 (p38 alpha)): -1% | inhibition at 10 µM [5]: 3% | inhibition at 10 µM ([6]; JAK2, 10 μM): 3% | inhibition at 10 µM ([6]; JAK2 JH1 JH2, 10 μM): -1% | inhibition at 10 µM [7]: -5% | inhibition at 10 µM [8]: 1% | inhibition at 10 µM [9]: -5% | inhibition at 10 µM [10]: 8% | inhibition at 10 µM [11]: 6% | inhibition at 10 µM [12]: 2% | inhibition at 10 µM [13]: 0% | inhibition at 10 µM [14]: -18% | inhibition at 10 µM ([15]; PDK1, 10 μM): 4% | inhibition at 10 µM ([15]; PDK1 Direct, 10 μM): -2% | inhibition at 10 µM [16]: 7% | inhibition at 10 µM [17]: 9% | inhibition at 10 µM [18]: -3% | inhibition at 10 µM [19]: 5% | inhibition at 10 µM [20]: -14% | inhibition at 10 µM [21]: 6% | inhibition at 10 µM [22]: 8% | inhibition at 10 µM [23]: 1% | inhibition at 10 µM [24]: 7% | inhibition at 10 µM [25]: 6% | inhibition at 10 µM ([26]; CDK5/p25, 10 μM): 1% | inhibition at 10 µM ([26]; CDK5/p35, 10 μM): 7% | inhibition at 10 µM [27]: 4% | inhibition at 10 µM [28]: 6% | inhibition at 10 µM [29]: -3% | inhibition at 10 µM [30]: -11% | inhibition at 10 µM [31]: 10% | inhibition at 10 µM [32]: 1% | inhibition at 10 µM [33]: -2%

— paper PMC9150124, “Design of a Potent, Selective, and Brain-Penetrant Inhibitor of Wnt-Deactivating Enzyme Notum by Optimization of a Crystallographic Fragment Hit” (Journal of Medicinal Chemistry, 2022)
